# Results reported in patent publication US12139488B2, “Pyrido[3,2-d]pyrimidine compounds uses thereof for treating a proliferative disease” (Universite de Montreal, priority 2021, dated 2024).
# pEC50, pIC50: −log10 of the molar value. Read-outs that look alike come from different tables or passages of the source.
# Experiments:
# Assay type in all cases: cell-based, human
# A375 cells (BRAF V600E) = experiment: Proliferation inhibition (CellTiter-Glo), A375; conditions: A375, 3 days, read-out: A375 Prolif. EC50
# Experimental: (§1) All cancer cell lines (A375, A101D, A2058, RKO, HT29 SK-MEL 30, IPC298, HepG2, HCT-116, Lovo, SWV620, SW480, NCI-H358, NCI-H2122, Calu-6, NCIH2087, NCIH1755, NCIH1666 and Mewo) were obtained from ATCC and cultured in RPMI-1640 medium (Gibco) supplemented with 5% heat inactivated fetal bovine serum (FBS, Wisent) at 37° C. under 5% CO2. Cells were maintained in T175 flasks (Greiner). They were passaged by removing the culture medium, washing once in 10 mL of room temperature Phosphate Buffered Saline (PBS; Wisent) and incubating at 37° C. with 2 mL of 0.05% Trypsin (Thermo-Fisher). Trypsin was then inactivated by adding complete growth medium and the cells were then replated in a T175 culture dish at the appropriate dilution. All cell lines were routinely tested for mycoplasma contamination. Tissue type and mutational status of each cell line can be found in Table B.
# (§2) CellTiter-Glo® viability analysis was conducted on cells plated in 100 μL of complete RPMI-1640 growth medium in 96-well flat-bottomed white opaque plates (Greiner or Croning) at a density indicated in Table E (for each CCL, number of cells plated per well of a 96-well plate to perform the CellTiter-Glo® cell viability assay). The cell density in cells/cm^2 would correspond to cell number divided by the area of one well of a 96-well plate (0.32 cm^2). […]
# (§3) After 3 days of incubation, the growth media were removed by aspiration and 60 μL of diluted CellTiter-Glo® reagent (10 μL CellTiter-Glo® reagent+50 μL of PBS) was added to each well. […] Luminescence signals were then acquired on a Synergy Neo2 plate reader (Biotek).
# (§4) The effect of each compound dilution on the proliferation of cancer cell lines was expressed in % inhibition and calculated as follows. […]
# (§5) The ability of each compound to inhibit proliferation was expressed as a EC50 value obtained by plotting the effect values for each data point of a dilution series and fitting the obtained curves using a log(agonist) versus response-variable slope (four parameters) function using GraphPadPrism (V7.0) or Dotmatics Screening Ultra platform.
# [1] = test system: pERK in Calu-6 cells (KRAS Q61K); experiment: Phospho-ERK inhibition (AlphaLISA), Calu-6; conditions: for Calu6 pERK % Ymin: Calu6, value in parentheses
# Experimental: as §1
# AlphaLISA® SureFire® Ultra™ p-ERK 1/2 (Thr202/Tyr204) analysis was conducted on cells plated in 100 μL of complete RPMI-1640 growth medium in 96-well flat-bottomed transparent dishes (Costar) at a density indicated in Table C. Cells were maintained overnight at 37° C. under 5% CO2 before treatment with compounds' dilution series for one hour. The cell density in cells/cm^2 corresponds to cell number divided by the area of one well of a 96-well plate ([…]).
# In a dilution series 100 μL/well of test substance dilution prepared in complete RPMI-1640 growth media was added to the cells. The dilution series is selected so that ten concentrations cover a range from 10 μM to 0.33 nM. If necessary the initial concentration of 10 μM is increased to 100 μM or lowered to 1 μM (as in the case of A375 and H1666 cells, which are generally more sensitive to the compounds) and further dilution is carried out accordingly. The final concentration of DMSO in the assay is set at 0.5%.
# After treatment, media was removed and cells were lysed in 50 μL of 1× AlphaScreen Ultra Lysis Buffer (Perkin Elmer). The AlphaLISA® SureFire® Ultra™ p-ERK 1/2 (Thr202/Tyr2O4) (PerkinElmer) reactions were performed with 5 μL of cell lysate according to the manufacturer's specifications in 384-well proxyplates (Perkin Elmer) followed by overnight incubation of the reactions at room temperature in a humidified chamber. After completion of the reactions, the signals were recorded on an EnVision plate reader (Perkin Elmer) using built in AlphaLISA® settings.
# The effect of each compound dilution on the pERK signal was expressed in % inhibition and calculated as follows. An internal 100% inhibition control ([…] trametinib, cat #HY-10999; MedChem Express; CAS #871700-17-3) was included in each plate and used as a measure of pERK background. First, the value obtained for trametinib was subtracted from each data point. The average of DMSO (vehicle) controls (set as 0% inhibition) was established and used to calculate % inhibition: % inhibition=100*(1-((pERK signalcompound)/(pERK signalDMSO)))
# as §5, with “pERK signal” for “proliferation”, “an IC50” for “a EC50”, “inhibition” for “effect”
# When present, paradoxical pERK induction is inferred from the negative % inhibition values observed in the pERK IC50 curves of a compound.
# IPC298 cells (NRAS-Q61L) = experiment: Proliferation inhibition (CellTiter-Glo), IPC298; conditions: IPC298, 3 days, read-out: IPC298 Prolif. EC50
# Experimental: as §1, §2, §3, §4, §5
# Mewo cells (NF1 LOF) = experiment: Proliferation inhibition (CellTiter-Glo), Mewo; conditions: 3 days, read-out: Mewo Prolif. EC50
# Experimental: as §1, §2, §3, §4, §5
"pEC50 (A375 cells (BRAF V600E); Homo sapiens, A-375, 72 h)","pIC50 ([1]; Homo sapiens, Calu-6, read-out: Calu6 pERK IC50)",pEC50 (A375 cells (BRAF V600E)),pIC50 ([1]; Calu6),Compound,Calu6 pERK % Ymin [1],"pEC50 (IPC298 cells (NRAS-Q61L); Homo sapiens, IPC-298, 72 h)","pEC50 (Mewo cells (NF1 LOF); Homo sapiens, 72 h)",pEC50 (IPC298 cells (NRAS-Q61L)),pEC50 (Mewo cells (NF1 LOF))
> 7.52,6.52 to 7.52,–,–,"Cc1ccc2c(Nc3cccc(Cl)c3F)nccc2c1NC(=O)c1csc2c(N)ncnc12 [Belvarafenib, reference compound]",−39%,> 7.52,5.52 to 6.52,–,–
–,–,> 7.52,6.52 to 7.52,Nc1cccc2c1ncn2-c1ccc2ncnc(Nc3c(F)ccc(NS(=O)(=O)c4cccc(Cl)c4Cl)c3F)c2n1 [Example 99],−12%,–,–,> 7.52,> 7.52
–,–,> 7.52,6.52 to 7.52,CC1(O)CCN(c2cccc3c2ncn3-c2ccc3ncnc(Nc4c(F)ccc(NS(=O)(=O)c5cccc(Cl)c5Cl)c4F)c3n2)CC1 [Example 524],−13%,–,–,> 7.52,> 7.52
